Data reported in patent publication US20190233287A1, “Methods To Prepare Haloamines Using At Least One Solid Reactant And Products Made Therefrom” (Buckman Laboratories International, Inc., priority 2018, published 2019).

Legend:
[1] = Chlorate ion concentration by Ion Chromatography; format: physicochemical; settings: aqueous solutions of the Dantochlor product (1.5-72 ppm); detection limit 0.5 ppm
Experimental: The chlorate ion concentration was also analyzed for various aqueous solutions of the Dantochlor product (1.5-72 ppm); chlorate ion was not detected above the method's detection limit of 0.5 ppm.

[2] = Chlorine content, MCA content and pH of solutions, measured at once and again after 1 hour; format: physicochemical; settings: 0.1 wt % Dantochlor aqueous solution, pH 11.2, measured instantly
Experimental: In this experiment the chlorine-releaser was granular Dantochlor (DCDMH), and the ammonium source was BUSPERSE 2454 (already in the form of an aqueous ammonium sulfate). A one liter aqueous solution containing 0.1 wt % Dantochlor was prepared. This aqueous solution was adjusted to a pH of 11.2 using NaOH (50%).
A molar equivalent amount of BUSPERSE 2454 was ±0.7 ml for a one liter solution. A 30% molar overdosage was used and thus, 1 ml of BUSPERSE 2454 was added to the aqueous solution of Dantochlor.

[3] = weak acid; cited from earlier work

| Compound | chlorate ion concentration [1] [ppm] | Free Cl2 [2] [ppm Cl2] | Total Cl2 [2] [ppm Cl2] | pKa [3] |
| --- | --- | --- | --- | --- |
| CC1(C)C(=O)N(Cl)C(=O)N1Cl [Dantochlor, dichlorodimethylhydantoin] | < 0.5 | 274 | 600 | – |
| OCl [HOCl, hypochlorous acid] | – | – | – | 7.5 |
